Earlier results in patent US20220184030A1, “N-Phenylacetyl-L-prolylglycine ethyl ester compositions and methods for using the same” (priority 2020, published 2022).
Like-named read-outs stand apart in the source and are kept apart here. Residues, ends and D or L forms follow the SMILES beside them. *: point of attachment. PhAc = O=C(Cc1ccccc1)*

Experiments:
[1] = not given; remark: listed apart in the source
[2] = users

Structure (SMILES) | side effects (healthy human subjects, compared with piracetam) | effective dose relative to the effective dose of piracetam ([1]; versus piracetam) | effective dose compared with racetams (in words) ([1]; versus some racetams, such as piracetam) | tolerance or addiction to the compound [2] | tolerance to the nootropic effects [2] | side effects (humans who consume effective doses)
CCOC(=O)CNC(=O)[C@@H]1CCCN1C(=O)Cc1ccccc1 [noopept, N-Phenylacetyl-L-prolylglycine ethyl ester] (PhAc-Pro-Gly-OEt) | fewer side effects | over 50 times smaller in mass | smaller effective dose than some racetams | neither noopept nor CBD has been shown to cause the user to become tolerant or addicted | generally do not develop a tolerance | 
C=C(C)[C@@H]1CCC(C)=C[C@H]1c1c(O)cc(CCCCC)cc1O [CBD, cannabidiol] |  |  |  | neither noopept nor CBD has been shown to cause the user to become tolerant or addicted | generally do not develop a tolerance | generally does not cause significant side effects
